Source: PubChem BioAssay (NCI)
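The compound was tested at five concentrations on cells cultured in 96-well plates, with a 48-hour exposure period. TGI: concentration producing complete growth inhibition.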

Assays:
Test in all cases: NCI-60 cell line screen, 48 h
[1] = test system: 786-0 renal
[2] = test system: OVCAR-4 ovarian
[3] = test system: NCI-H23 lung
[4] = test system: HT29 colon
[5] = test system: PC-3 prostate
[6] = test system: OVCAR-8 ovarian
[7] = test system: SNB-19 CNS
[8] = test system: HCC-2998 colon
[9] = test system: U251 CNS
[10] = test system: OVCAR-3 ovarian
[11] = test system: NCI-H460 lung
[12] = test system: LOX IMVI melanoma
[13] = test system: SF-268 CNS
[14] = test system: NCI-H226 lung
[15] = test system: A549 NSCLC
[16] = test system: MDA-MB-435
[17] = test system: MCF7 breast
[18] = test system: A498 renal
[19] = test system: SK-MEL-28 melanoma
[20] = test system: SK-MEL-2 melanoma
[21] = test system: UO-31 renal
[22] = test system: SN12C renal
[23] = test system: M14 melanoma
[24] = test system: K-562 leukemia
[25] = test system: SF-295 CNS
[26] = test system: CCRF-CEM leukemia
[27] = test system: NCI-H522 lung
[28] = test system: SK-MEL-5 melanoma
[29] = test system: RPMI-8226 leukemia
[30] = test system: SF-539 CNS
[31] = test system: SK-OV-3 ovarian
[32] = test system: DU-145 prostate
[33] = test system: BT-549 breast
[34] = test system: UACC-62 melanoma
[35] = test system: MOLT-4 leukemia
[36] = test system: HCT-116 colon
[37] = test system: MALME-3M melanoma
[38] = test system: ACHN renal
[39] = test system: HL-60(TB) leukemia
[40] = test system: NCI/ADR-RES ovarian
[41] = test system: HOP-92 NSCLC
[42] = test system: COLO 205 colon
[43] = test system: TK-10 renal
[44] = test system: SW-620 colon
[45] = test system: UACC-257 melanoma
[46] = test system: T-47D breast
[47] = test system: HS 578T breast
[48] = test system: MDA-N
[49] = test system: OVCAR-5 ovarian
[50] = test system: HCT-15 colon
[51] = test system: CAKI-1 renal
[52] = test system: MDA-MB-231 breast
[53] = test system: IGROV1 ovarian
[54] = test system: HOP-62 NSCLC
[55] = test system: KM12 colon
[56] = test system: SR leukemia
[57] = test system: SNB-75 CNS
[58] = test system: RXF 393 renal
[59] = test system: EKVX NSCLC

Q: `Cc1nn(C2OC(CO)C(O)C(F)C2O)c(=O)[nH]c1=O` (stereo not drawn) was tested. Which TGI [1] did it give?
A: > 100 µM

Q: And the TGI [2]?
A: > 100 µM

Q: And the TGI [3]?
A: > 100 µM

Q: And the TGI [4]?
A: > 100 µM

Q: What about the TGI [5] of the same molecule?
A: > 100 µM

Q: What about the TGI [6] of the same molecule?
A: > 100 µM

Q: What about the TGI [7] of the same molecule?
A: > 100 µM

Q: What about the TGI [8] of the same molecule?
A: > 100 µM

Q: And the TGI [9]?
A: > 100 µM

Q: And the TGI [10]?
A: > 100 µM

Q: What about the TGI [11] of the same molecule?
A: > 100 µM

Q: And the TGI [12]?
A: > 100 µM

Q: What about the TGI [13] of the same molecule?
A: > 100 µM

Q: And the TGI [14]?
A: > 100 µM

Q: What about the TGI [15] of the same molecule?
A: > 100 µM

Q: And the TGI [16]?
A: > 100 µM

Q: What about the TGI [17] of the same molecule?
A: > 100 µM

Q: What about the TGI [18] of the same molecule?
A: > 100 µM

Q: What about the TGI [19] of the same molecule?
A: > 100 µM

Q: What about the TGI [20] of the same molecule?
A: > 100 µM

Q: What about the TGI [21] of the same molecule?
A: > 100 µM

Q: What about the TGI [22] of the same molecule?
A: > 100 µM

Q: And the TGI [23]?
A: > 100 µM

Q: And the TGI [24]?
A: > 100 µM

Q: And the TGI [25]?
A: > 100 µM

Q: And the TGI [26]?
A: > 100 µM

Q: What about the TGI [27] of the same molecule?
A: > 100 µM

Q: And the TGI [28]?
A: > 100 µM

Q: And the TGI [29]?
A: > 100 µM

Q: And the TGI [30]?
A: > 100 µM

Q: What about the TGI [31] of the same molecule?
A: > 100 µM

Q: What about the TGI [32] of the same molecule?
A: > 100 µM

Q: What about the TGI [33] of the same molecule?
A: > 100 µM

Q: What about the TGI [34] of the same molecule?
A: > 100 µM

Q: And the TGI [35]?
A: > 100 µM

Q: What about the TGI [36] of the same molecule?
A: > 100 µM

Q: What about the TGI [37] of the same molecule?
A: > 100 µM

Q: What about the TGI [38] of the same molecule?
A: > 100 µM

Q: What about the TGI [39] of the same molecule?
A: > 100 µM

Q: And the TGI [40]?
A: > 100 µM

Q: And the TGI [41]?
A: > 100 µM

Q: What about the TGI [42] of the same molecule?
A: > 100 µM

Q: And the TGI [43]?
A: > 100 µM

Q: And the TGI [44]?
A: > 100 µM

Q: What about the TGI [45] of the same molecule?
A: > 100 µM

Q: What about the TGI [46] of the same molecule?
A: > 100 µM

Q: What about the TGI [47] of the same molecule?
A: > 100 µM

Q: And the TGI [48]?
A: > 100 µM

Q: And the TGI [49]?
A: > 100 µM

Q: What about the TGI [50] of the same molecule?
A: > 100 µM

Q: And the TGI [51]?
A: > 100 µM

Q: And the TGI [52]?
A: > 100 µM

Q: Which TGI [1] does the source give for `COc1cc(/C=C2\C(=O)N(c3cc(Cl)ccc3Cl)C(c3ccccc3)S2(=O)=O)cc(OC)c1OC` (stereo not drawn) here?
A: > 100 µM

Q: What about the TGI [2] of the same molecule?
A: > 100 µM

Q: And the TGI [3]?
A: > 100 µM

Q: And the TGI [4]?
A: > 100 µM

Q: And the TGI [5]?
A: > 100 µM

Q: What about the TGI [6] of the same molecule?
A: > 100 µM

Q: And the TGI [7]?
A: > 100 µM

Q: And the TGI [8]?
A: > 100 µM

Q: What about the TGI [9] of the same molecule?
A: > 100 µM

Q: And the TGI [10]?
A: > 100 µM

Q: What about the TGI [53] of the same molecule?
A: > 100 µM

Q: What about the TGI [54] of the same molecule?
A: > 100 µM

Q: And the TGI [11]?
A: > 100 µM

Q: What about the TGI [12] of the same molecule?
A: > 100 µM

Q: What about the TGI [14] of the same molecule?
A: > 100 µM

Q: And the TGI [15]?
A: > 100 µM

Q: What about the TGI [16] of the same molecule?
A: 96.2 µM

Q: What about the TGI [55] of the same molecule?
A: > 100 µM

Q: What about the TGI [17] of the same molecule?
A: > 100 µM

Q: And the TGI [18]?
A: > 100 µM

Q: And the TGI [56]?
A: > 100 µM

Q: What about the TGI [19] of the same molecule?
A: > 100 µM

Q: What about the TGI [20] of the same molecule?
A: > 100 µM

Q: What about the TGI [21] of the same molecule?
A: > 100 µM

Q: And the TGI [22]?
A: > 100 µM

Q: And the TGI [23]?
A: > 100 µM

Q: What about the TGI [24] of the same molecule?
A: > 100 µM

Q: And the TGI [25]?
A: > 100 µM

Q: And the TGI [26]?
A: > 100 µM

Q: What about the TGI [27] of the same molecule?
A: > 100 µM

Q: What about the TGI [57] of the same molecule?
A: > 100 µM

Q: And the TGI [28]?
A: > 100 µM

Q: And the TGI [29]?
A: > 100 µM

Q: What about the TGI [58] of the same molecule?
A: > 100 µM

Q: And the TGI [30]?
A: > 100 µM

Q: What about the TGI [31] of the same molecule?
A: > 100 µM

Q: What about the TGI [32] of the same molecule?
A: > 100 µM

Q: And the TGI [33]?
A: > 100 µM

Q: And the TGI [34]?
A: > 100 µM

Q: And the TGI [35]?
A: 99.4 µM

Q: And the TGI [36]?
A: > 100 µM

Q: And the TGI [37]?
A: > 100 µM

Q: What about the TGI [38] of the same molecule?
A: > 100 µM

Q: And the TGI [39]?
A: 51.7 µM

Q: What about the TGI [40] of the same molecule?
A: > 100 µM

Q: And the TGI [41]?
A: > 100 µM

Q: What about the TGI [42] of the same molecule?
A: > 100 µM

Q: What about the TGI [43] of the same molecule?
A: > 100 µM

Q: What about the TGI [44] of the same molecule?
A: > 100 µM

Q: And the TGI [45]?
A: > 100 µM

Q: And the TGI [46]?
A: > 100 µM

Q: And the TGI [59]?
A: > 100 µM

Q: And the TGI [48]?
A: 66.1 µM

Q: And the TGI [49]?
A: > 100 µM

Q: What about the TGI [50] of the same molecule?
A: > 100 µM

Q: What about the TGI [51] of the same molecule?
A: > 100 µM

Q: What about the TGI [52] of the same molecule?
A: > 100 µM

Q: `Clc1ccc(CSc2ncnc3c2ncn3C2CCCCO2)cc1` (stereo not drawn) was tested. Which TGI [1] did it give?
A: 56.2 µM

Q: And the TGI [2]?
A: > 100 µM

Q: What about the TGI [3] of the same molecule?
A: 64.8 µM

Q: What about the TGI [4] of the same molecule?
A: 35.5 µM

Q: What about the TGI [5] of the same molecule?
A: 74.7 µM

Q: And the TGI [6]?
A: 71.5 µM

Q: What about the TGI [7] of the same molecule?
A: > 100 µM

Q: What about the TGI [8] of the same molecule?
A: 38.1 µM

Q: And the TGI [9]?
A: 44.9 µM

Q: What about the TGI [10] of the same molecule?
A: 32.5 µM

Q: What about the TGI [53] of the same molecule?
A: > 100 µM

Q: And the TGI [54]?
A: 45.7 µM

Q: What about the TGI [11] of the same molecule?
A: 36.7 µM

Q: And the TGI [12]?
A: 36.3 µM

Q: And the TGI [13]?
A: 77.4 µM

Q: And the TGI [14]?
A: 76.7 µM

Q: What about the TGI [15] of the same molecule?
A: > 100 µM

Q: And the TGI [16]?
A: 38.1 µM

Q: And the TGI [55]?
A: 46.9 µM

Q: And the TGI [17]?
A: 83.7 µM

Q: And the TGI [18]?
A: 31.9 µM

Q: And the TGI [19]?
A: 48.8 µM

Q: And the TGI [20]?
A: 32 µM

Q: And the TGI [21]?
A: 4.36 µM

Q: And the TGI [22]?
A: 38.7 µM

Q: And the TGI [23]?
A: 31 µM

Q: What about the TGI [24] of the same molecule?
A: 66.1 µM

Q: What about the TGI [25] of the same molecule?
A: 36.7 µM

Q: What about the TGI [27] of the same molecule?
A: 33.7 µM

Q: And the TGI [57]?
A: 58.1 µM

Q: And the TGI [28]?
A: 22.9 µM

Q: What about the TGI [29] of the same molecule?
A: 39.4 µM

Q: And the TGI [58]?
A: 80.2 µM

Q: And the TGI [31]?
A: 55.6 µM

Q: And the TGI [32]?
A: > 100 µM

Q: What about the TGI [33] of the same molecule?
A: 68.2 µM

Q: And the TGI [34]?
A: 30 µM

Q: What about the TGI [36] of the same molecule?
A: 53.9 µM

Q: What about the TGI [37] of the same molecule?
A: 38.4 µM

Q: What about the TGI [38] of the same molecule?
A: 29.8 µM

Q: And the TGI [40]?
A: 63.2 µM

Q: What about the TGI [41] of the same molecule?
A: 89.2 µM

Q: What about the TGI [42] of the same molecule?
A: 56.9 µM

Q: What about the TGI [43] of the same molecule?
A: 60.4 µM

Q: What about the TGI [44] of the same molecule?
A: > 100 µM

Q: What about the TGI [45] of the same molecule?
A: 24.9 µM

Q: And the TGI [46]?
A: 57.8 µM

Q: What about the TGI [59] of the same molecule?
A: 50.1 µM

Q: And the TGI [47]?
A: 76.4 µM

Q: What about the TGI [48] of the same molecule?
A: 43.8 µM

Q: And the TGI [49]?
A: > 100 µM

Q: What about the TGI [50] of the same molecule?
A: > 100 µM

Q: What about the TGI [51] of the same molecule?
A: > 100 µM

Q: What about the TGI [52] of the same molecule?
A: 86.3 µM
